Reference: PubChem BioAssay AID702 (NMMLSC, 2007)
pEC50: −log10 of the molar value. Results filed as inconclusive are left out. The source made the active and inactive calls. How the calls were made is not given here.

Biological target: Integrin alpha-4 (Homo sapiens) (UniProt P13612)
Experiment: inhibition of LDV ligand binding to VLA-4 – cell-based, LDV-FITC binding, flow cytometry, dose response (AID 702)

Chain of Integrin alpha-4 (Homo sapiens) (P13612 whole entry, looked up): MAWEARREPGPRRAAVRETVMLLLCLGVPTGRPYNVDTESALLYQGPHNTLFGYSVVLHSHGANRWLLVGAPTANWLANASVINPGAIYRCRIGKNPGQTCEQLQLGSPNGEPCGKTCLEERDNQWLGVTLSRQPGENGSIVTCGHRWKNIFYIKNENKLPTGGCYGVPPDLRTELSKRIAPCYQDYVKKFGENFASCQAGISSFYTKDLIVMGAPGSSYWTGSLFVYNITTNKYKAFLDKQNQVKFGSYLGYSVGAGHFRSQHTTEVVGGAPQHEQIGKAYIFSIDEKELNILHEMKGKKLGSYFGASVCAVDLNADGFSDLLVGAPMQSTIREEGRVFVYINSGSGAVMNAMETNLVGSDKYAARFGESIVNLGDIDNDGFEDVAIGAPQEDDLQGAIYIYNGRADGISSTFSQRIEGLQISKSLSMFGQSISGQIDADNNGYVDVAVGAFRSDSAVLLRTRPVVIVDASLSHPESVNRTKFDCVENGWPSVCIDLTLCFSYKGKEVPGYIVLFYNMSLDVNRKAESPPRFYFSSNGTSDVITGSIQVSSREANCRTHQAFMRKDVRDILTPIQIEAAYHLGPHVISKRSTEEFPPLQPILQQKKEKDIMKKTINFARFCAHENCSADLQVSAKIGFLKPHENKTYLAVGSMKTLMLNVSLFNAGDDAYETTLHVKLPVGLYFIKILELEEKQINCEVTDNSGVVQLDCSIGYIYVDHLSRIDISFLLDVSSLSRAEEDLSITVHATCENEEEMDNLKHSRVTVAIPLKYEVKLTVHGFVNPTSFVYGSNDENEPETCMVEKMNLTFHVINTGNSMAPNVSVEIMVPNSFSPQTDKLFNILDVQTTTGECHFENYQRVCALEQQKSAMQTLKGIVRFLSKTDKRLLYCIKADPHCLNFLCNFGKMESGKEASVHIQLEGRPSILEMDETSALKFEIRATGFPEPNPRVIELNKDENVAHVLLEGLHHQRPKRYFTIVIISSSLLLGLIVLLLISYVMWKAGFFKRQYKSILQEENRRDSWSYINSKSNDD

Q: How did the pEC50 turn out when `O=C1C(CCS(=O)c2ccccc2)C(=O)N(c2ccccc2)N1c1ccccc1` (stereo not given) was run?
A: 4.76

Q: For `COc1cc2[nH]c(=O)n(CCC(=O)N3CCc4ccccc4C3)c(=O)c2cc1OC`, which outcome is on record?
A: inactive

Q: `Cc1oc2cc(O)ccc2c(=O)c1Oc1ccccc1Br` was tested. Which pEC50 did it give?
A: 4.50

Q: `CCOc1cc2[nH]c(=O)n(CC3CCC(C(=O)NCCC(C)C)CC3)c(=O)c2cc1OCC` (stereo not given) was tested. Which pEC50 did it give?
A: 5.63

Q: How did the outcome turn out when `O=C1NC(=O)C(c2ccccc2)N1` (stereo not given) was run?
A: inactive

Q: `Cc1onc(-c2ccccc2)c1C(=O)NC(CC(=O)O)c1ccc(OC(C)C)cc1` (stereo not given) was tested. Which pEC50 did it give?
A: 5.19

Q: How did the pEC50 turn out when `Cc1cc(C)cc(-n2ccnc(SCC(=O)Nc3ccc(Cl)cc3F)c2=O)c1` was run?
A: 4.28

Q: With `CCOc1ccc(C(CC(=O)O)NC(=O)C23CC4CC(CC(C4)C2)C3)cc1` (stereo not given) as the compound, how does the pEC50 read?
A: 7.05

Q: How did the pEC50 turn out when `CCCCCNC(=O)CCCCn1c(=O)[nH]c2cc(OCC)c(OCC)cc2c1=O` was run?
A: 5.34

Q: How did the outcome turn out when `O=C1NC(=O)N(c2ccccc2)C1c1ccccc1` (stereo not given) was run?
A: inactive

Q: How did the pEC50 turn out when `COc1cccc2sc(Nc3nnc(-c4ccccc4Cl)o3)nc12` was run?
A: 5.29

Q: `COc1cc(Cn2c(-c3nonc3N)nc3ccccc32)ccc1C` was tested. Which outcome did it give?
A: inactive

Q: Which outcome does the source give for `CCOc1cc2[nH]c(=O)n(CCCC(=O)N3CCCC3)c(=O)c2cc1OCC` here?
A: inactive

Q: With `COc1cccc2sc(Nc3nc(C)c(C(C)=O)s3)nc12` as the compound, how does the outcome read?
A: inactive

Q: `CCCCN1C(=O)C(c2ccccc2)N(c2ccccc2)C1=O` (stereo not given) was tested. Which outcome did it give?
A: inactive

Q: For `CCCCC1(O)C(=O)N(c2ccccc2)N(c2ccccc2)C1=O`, which outcome is on record?
A: inactive

Q: How did the pEC50 turn out when `CC(C)Oc1ccc(C(CC(=O)O)NC(=O)C2CCCCC2)cc1` (stereo not given) was run?
A: 5.38

Q: With `CCOc1cc2[nH]c(=O)n(CC3CCC(C(=O)NC(C)CC)CC3)c(=O)c2cc1OCC` (stereo not given) as the compound, how does the pEC50 read?
A: 5.37

Q: `COc1ccccc1-c1nnc(Nc2nc3c(OC)cccc3s2)o1` was tested. Which outcome did it give?
A: inactive

Q: `Cn1c(=O)cc(SCC(=O)N2CCN(C3CCCCC3)CC2)c2ccccc21` was tested. Which outcome did it give?
A: inactive

Q: How did the outcome turn out when `CCOc1cc2[nH]c(=O)n(CCCC(=O)NCc3ccco3)c(=O)c2cc1OCC` was run?
A: inactive

Q: Which outcome does the source give for `O=C(NCC12CC3CC(CC(C3)C1)C2)c1nn2c(c1Cl)NC(c1ccco1)CC2C(F)(F)F` (stereo not given) here?
A: inactive

Q: How did the outcome turn out when `CCOc1cc2[nH]c(=O)n(CCC(=O)NCCOC)c(=O)c2cc1OCC` was run?
A: inactive

Q: How did the outcome turn out when `CCOc1cc2[nH]c(=O)n(CCCCCC(=O)NCc3ccco3)c(=O)c2cc1OCC` was run?
A: inactive

Q: `CCCCC1C(=O)N(c2ccccc2)N(c2ccccc2)C1=O` was tested. Which pEC50 did it give?
A: 5.97

Q: How did the pEC50 turn out when `N/C(=N/O)c1nc(N2CCCC2)nc(N(c2ccccc2)c2ccccc2)n1` was run?
A: 4.69

Q: `CCOc1cc2[nH]c(=O)n(CCCN3CCCC3=O)c(=O)c2cc1OCC` was tested. Which outcome did it give?
A: inactive

Q: `COc1cccc2sc(Nc3nc(-c4ccncc4)cs3)nc12` was tested. Which outcome did it give?
A: inactive

Q: With `CCCCC1(C)C(=O)N(c2ccccc2)N(c2ccccc2)C1=O` as the compound, how does the outcome read?
A: inactive

Q: With `O=C(Cn1nc(-c2ccc3c(c2)OCCO3)ccc1=O)Nc1ccc(N2CCOCC2)cc1` as the compound, how does the pEC50 read?
A: 4.85

Q: Which outcome does the source give for `COc1cc2[nH]c3c(N4CCN(c5ccccn5)CC4)ncnc3c2cc1OC` here?
A: inactive

Q: `C=C(C)C1Cc2c(C)nn(-c3nc(C)cc(C)n3)c2C1` (stereo not given) was tested. Which pEC50 did it give?
A: 4.35

Q: For `CCCCC1(C(=O)O)C(=O)N(c2ccccc2)N(c2ccccc2)C1=O`, which outcome is on record?
A: inactive

Q: For `CCCCN1C(=O)N(c2ccccc2)C(CCCC)(c2ccccc2)C1=O` (stereo not given), which outcome is on record?
A: inactive

Q: With `CCCCN1C(=O)NC(c2ccccc2)C1=O` (stereo not given) as the compound, how does the outcome read?
A: inactive

Q: With `CCCOc1ccc(C(CC(=O)O)NC(=O)C23CC4CC(CC(C4)C2)C3)cc1` (stereo not given) as the compound, how does the pEC50 read?
A: 7.10

Q: `COc1cc2[nH]c(=O)n(CCC(=O)NCc3cccnc3)c(=O)c2cc1OC` was tested. Which outcome did it give?
A: inactive

Q: Which outcome does the source give for `COc1cc2[nH]c(=O)n(CCCC(=O)N3CCOCC3)c(=O)c2cc1OC` here?
A: inactive

Q: `O=C(O)CCCn1c(=O)[nH]c2cc3c(cc2c1=O)OCO3` was tested. Which outcome did it give?
A: inactive

Q: `CCOc1cc2[nH]c(=O)n(CCCCC(=O)NC3CCCCCC3)c(=O)c2cc1OCC` was tested. Which pEC50 did it give?
A: 5.29
